Assay results from US10517889B2, “Modulators of SMAD7 expression” (Ionis Pharmaceuticals, Inc., priority 2017, dated 2019).

Columns and labels:
[1] = Hematology assays after subcutaneous administration in CD-1 mice (Example 6); format: in vivo; design: RBC / Eosinophils / Monocytes: unit not given here; settings: 50 mg/kg subcutaneous twice weekly for 7 weeks; for Basophils: n.d. = below detection levels
Protocol: Groups of 8-9 week old male CD-1 mice were injected subcutaneously twice a week for 7 weeks with 50 mg/kg of Ionis oligonucleotides (100 mg/kg/week dose). Each group contained 4 mice. One group of male CD-1 mice was injected subcutaneously twice a week for 7 weeks with PBS. Plasma was collected for analysis on day 28.
Blood obtained from all mouse groups was measured by an ADVIA2120i hematology analyzer (Siemens, USA) for measurements of the various blood cells, as well as other hematology markers.

human SMAD7 mRNA = assay: Dose-dependent inhibition of human SMAD7 mRNA expression in Hep3B cells, comparison with ION 28453 (Example 4); format: cell-based; settings: electroporation, approximately 16 hours
Protocol: Cells were plated at a density of 20,000 cells per well and transfected using electroporation with 0.25 μM, 0.74 μM, 2.22 μM, 6.67 μM, or 20.00 μM concentrations of antisense oligonucleotide, as specified in the Tables below. After a treatment period of approximately 16 hours, RNA was isolated from the cells and SMAD7 mRNA levels were measured by quantitative real-time PCR. Primer probe set RTS5062 was used to measure human SMAD7 mRNA levels. SMAD7 mRNA levels were adjusted according to total RNA content, as measured by RIBOGREEN®. Results are presented as percent inhibition of SMAD7 mRNa expression, relative to untreated control cells.
The half maximal inhibitory concentration (IC50) of each oligonucleotide is also presented. […] Several newly designed antisense oligonucleotides had greater potency than the previously disclosed lead compound, ION 28453.

| Substance | Eosinophils [1] | Hematocrit [1] [%] | Hemoglobin [1] [g/dL] | Lymphocytes [1] [%] | MCH [1] [pg] | MCHC [1] [g/dL] | MCV [1] [fL] | Monocytes [1] | Neutrophils [1] [%] | RBC [1] | Reticulocytes [1] [%] | WBC [1] | platelets [1] | Basophils [1] | % inhibition of SMAD7 mRNA expression (human SMAD7 mRNA; 0.25 μM) [%] | % inhibition of SMAD7 mRNA expression (human SMAD7 mRNA; 0.74 μM) [%] | % inhibition of SMAD7 mRNA expression (human SMAD7 mRNA; 2.22 μM) [%] | % inhibition of SMAD7 mRNA expression (human SMAD7 mRNA; 6.67 μM) [%] | % inhibition of SMAD7 mRNA expression (human SMAD7 mRNA; 20.00 μM) [%] | IC50 (human SMAD7 mRNA; SMAD7 mRNA) [µM] |
| --- | --- | --- | --- | --- | --- | --- | --- | --- | --- | --- | --- | --- | --- | --- | --- | --- | --- | --- | --- | --- |
| 790615 (CCAATGAGAATGCTTC; 3-10-3 cEt gapmer, further chemistry not given here) [compound 790615] | 2.5 | 46.2 | 15.2 | 82.8 | 14.7 | 32.8 | 44.8 | 5.0 | 9.7 | 10.3 | 3.5 | 10.5 10^3/μL | 1055.8 10^3/μL | 0.1 10^3/μL |  |  |  |  |  |  |
| 798781 (CGTAAGATTCACAGCA; 3-10-3 cEt gapmer, further chemistry not given here) [compound 798781] | 2.4 | 42.3 | 13.8 | 73.7 | 14.9 | 32.6 | 45.8 | 5.2 | 18.8 | 9.3 | 3.3 | 4.9 10^3/μL | 867.3 10^3/μL |  | 12 | 38 | 66 | 66 | 87 | 2 |
| 829994 (GGAGGCAGGGCCGCGA; 3-10-3 cEt gapmer, further chemistry not given here) [compound 829994] | 1.3 | 36.6 | 12.0 | 79.4 | 15.5 | 32.7 | 47.3 | 3.0 | 16.4 | 7.7 | 3.7 | 5.0 10^3/μL | 841.3 10^3/μL |  |  |  |  |  |  |  |
| 830025 (antisense TTTGTAAATCGAAAGC; 3-10-3 cEt gapmer, further chemistry not given here) [compound 830025] | 3.8 | 38.7 | 12.5 | 83.2 | 15.7 | 32.3 | 48.8 | 3.2 | 9.3 | 8.0 | 3.3 | 4.8 10^3/μL | 805.0 10^3/μL | 0.6 10^3/μL |  |  |  |  |  |  |
| 830121 (AGAATCAAGCCCTGGC; 3-10-3 cEt gapmer, further chemistry not given here) [compound 830121] | 3.5 | 40.4 | 13.6 | 75.3 | 15.3 | 33.6 | 45.5 | 5.1 | 15.8 | 8.9 | 4.5 | 10.1 10^3/μL | 765.0 10^3/μL | 0.3 10^3/μL |  |  |  |  |  |  |
